Results from patent US10912819B2, “Neuroprotective peptides derived from activity-dependent neuroprotective protein for treatment of neurological diseases” (priority 2016, dated 2021).
“Also recorded” adds a separate entry of the source.

Experiments:
Adnp^+/− mice [1] = experiment: Object recognition test; assay type: in vivo
Experimental: Data are expressed as mean (±SEM) total time (sec) spent exploring all objects designated by relative discrimination index (a and b-exploration of familiar and novel object, respectively) in Phase 2 (A) and Phase 3 (B). Two identical objects were presented during Phase 1 (habituation), and one of the identical objects was replaced by a novel object during Phases 2 and 3. […] (C) 2-month-old mice (n=3-4 males or 6-8 females per experimental group) were treated daily, five times a week for 6 weeks with 0.5 μg NAP/mouse/day by intranasal administration in DD=7.5 mg/ml of NaCl, 1.7 mg/ml of citric acid monohydrate, 3 mg/ml of disodium phosphate dihydrate, and 0.2 mg/ml of 50% benzalkonium chloride solution. Animal performance in the object recognition test after four week treatment is shown. Data are expressed as mean (±SEM) as above, in the long retention choice phase (24 hours after habituation).
(§1) Experiments performed as we described in Malishkevich et al., 2015 (37) and Amram et al., Mol Psychiatry. 2016 October; 21(10):1467-76 (7). 3-6 month-old male mice were used, drug application (0.5 μg/5 μl/mouse) was once daily, for one month and then behavioral assays were initiated together with drug application. In experiments with the vehicle termed DD (NAP-benzalkonium), drug application was at 2 months of age and continued as above. Open field experiments (16, 17) and elevated plus maze evaluations (18) were carried out as before.
Animal performance in the object recognition memory test is shown. Two identical objects were presented during the habituation phase, and one of the identical objects was replaced by a novel object during the short retention choice phase (3 hours) and the long retention choice phase (24 hours).

Adnp^+/− mice [2] = experiment: Social memory test; assay type: in vivo
Experimental: FIG. 3. NAP treatment increases social memory. Animal performance is shown. (A, animals were as in FIG. 2A,B; n=9-12 per group). Data are expressed as mean±SEM total time (sec) spent exploring mice designated by relative discrimination index (D2=(b−a)/(a+b); b=time sniffing novel mouse, a=time sniffing familiar mouse). An empty wire cup and a cup containing target mouse (“familiar”) were placed in the center of the right or left chamber. After 3 hours, a novel mouse was put inside the empty cup, while the other cup contained the familiar mouse. The Adnp^+/− mice spent less time in exploring the novel mouse, as compared to Adnp^+/+ mice.
as §1

Adnp^+/− mice [3] = experiment: Odor discrimination test; assay type: in vivo
Experimental: As social memory depends on olfactory function, NAP treatment was also tested in odor discrimination test. Odors were presented on a suspended cotton swab to the test mouse placed into the clean cage with fresh shavings. Each mouse was tested during three consecutive 2-min periods for each odor, with 2-min intervals between presentations. The x axis indicates the consecutive number of the odor exposure period. The time that the mouse smelled the swab was recorded (beginning whenever the animal oriented its nostrils toward the cotton swab, within 2 cm or less). (Malishkevich et al., Transl Psychiatry (2015) 5, e501; Amram et al., Mol Psychiatry. 2016 10:1467-76).

Foxp2 = Foxp2 mRNA expression in the tongue, quantitative real-time PCR; assay type: in vivo; details: 4-month-old mice treated with NAP/DD, normalized to Gapdh; increased in Adnp-deficient mice
Experimental: (B) Foxp2 (the language-linked gene) expression in the tongue is increased in Adnp-deficient mice and is normalized by NAP. Tongue total RNA was extracted from 4-month-old mice (treated with NAP/DD as above) and analyzed for Foxp2 and Gapdh mRNA expression by quantitative real-time PCR (n=3-7 animals per experimental group). Gapdh served as a normalizing transcript. […] Two-way ANOVA analysis was performed using SigmaPlot. Sexual dichotomy determined by t-test analysis was also observed for the increased Foxp2 expression between Adnp males and females (**p<0.01).
(§2) Quantitative reverse transcription real time polymerase chain reaction (RT-PCR) was performed as before (18, 37).

Chl1 = experiment: Hippocampal Chl1 mRNA expression, quantitative real-time PCR; assay type: in vivo; details: 7.5-month-old mice treated with NAP/CB, FIG. 8F
Experimental: In females, NAP regulates genes deregulated with ADNP mutation in the hippocampus. […] Sexual dichotomy determined by t-test analysis was also observed for Akap6 and Chl1 expression between Adnp^+/− males and females (#p<0.05, ##p<0.01, ###p<0.001).
as §2

Adnp^+/− mouse pups = experiment: Ultrasonic vocalization (USV) of pups after dam separation; assay type: in vivo, mice
Experimental: Furthermore, Auditory brain response (ABR) of 2.5 months old mice presents prolonged latency of hearing in Adnp+/− vs. Adnp+/+ females. (A) Results are presented as means±SEM. Ultrasonic vocalizations (USVs) were recorded in eight-day-old pups, subjected to daily subcutaneous injections of NAP (25 μg/ml saline) or saline (20 μl and 40 μl on postnatal days 1-4 and 5-7). The recordings were performed following dam separation according to published literature (Shu, W., et al. 2005. Proc Nati Acad Sci USA 102:9643-9648) NAP was injected as described before (Rotstein, M., et al., 2006. J Pharmacol Exp Ther 319:332-339).
Language and speech deficits affect ADNP-mutated children (38, 39) and autistic children in general (51). In rodents, both speech and social communication are tested by analysis of isolation induced ultrasonic vocalizations (USVs) (52). As part of USV test, 25 μg of NAP were diluted in 1 ml saline and injected (subcutaneous) to Adnp^+/− mouse pups for 9 subsequent days (1-9 days of age) in doses of 20, 40 μl on days 1-4, 5-7 respectively (50).

[4] = system: amnestic mild cognitive impairment patients; details: clinical study; cited from earlier work
schizophrenia patients = details: clinical study; cited from earlier work
[5] = 5-month-old mice, 0.5 μg NAP/mouse/day intranasal in CB, 8 weeks, NAP vs vehicle p<0.05

SMILES: CC[C@H](C)[C@H](NC(=O)[C@H](CO)NC(=O)[C@@H](NC(=O)[C@@H]1CCCN1C(=O)[C@H](C)NC(=O)[C@@H](N)CC(N)=O)C(C)C)C(=O)N1CCC[C@H]1C(=O)N[C@@H](CCC(N)=O)C(=O)O [NAP]
- relative discrimination index, long retention choice phase, females (Adnp^+/− mice [1]; 2-month-old mice, 0.5 μg NAP/mouse/day intranasal in DD, after four week treatment, p<0.05): normalizing the deficient female behavior
- relative discrimination index, long retention choice phase, males (Adnp^+/− mice [1]; 2-month-old mice, 0.5 μg NAP/mouse/day intranasal in DD, n=3-4): only a trend
- relative discrimination index, short retention phase (Adnp^+/− mice [1]; 2-month-old mice, NAP intranasal in DD): No differences were observed
- relative discrimination index novel vs familiar object, short retention choice phase (Adnp^+/− mice [1]; 3 hours after habituation, male mice 6-9 months, NAP in CB intranasal, NAP-treated vs Adnp^+/− p<0.001): Significant differences
- relative discrimination index novel vs familiar object, long retention choice phase (Adnp^+/− mice [1]; 24 hours after habituation, male mice 6-9 months, NAP in CB intranasal, NAP-treated vs Adnp^+/− p<0.001): Significant differences
- social memory, females (Adnp^+/− mice [2]; 2-month-old mice, 0.5 μg NAP/mouse/day intranasal in DD, 7 weeks, NAP vs vehicle p<0.05): significant difference
- social memory, females (Adnp^+/− mice [2]; [5]): significant difference
- social memory, males (Adnp^+/− mice [2]; [5]): significant difference
- social memory (relative discrimination index novel vs familiar mouse) (Adnp^+/− mice [2]; male mice 6-9 months, NAP in CB intranasal, FIG. 3A, NAP vs vehicle p<0.001): improved social memory
- general olfaction ability (AUC), males (Adnp^+/− mice [3]; 2-month-old mice (n=3-4), NAP intranasal in DD, 8 weeks, two-way ANOVA p=0.046): main effect for treatment
- general olfaction ability (AUC), females (Adnp^+/− mice [3]; 5-month-old mice, NAP intranasal in CB, 9 weeks, NAP vs vehicle p<0.01): significant difference
- general olfaction ability (AUC), males (Adnp^+/− mice [3]; 5-month-old mice, NAP intranasal in CB, 9 weeks, NAP vs vehicle p<0.05): significant difference
- general change in olfactory behavior (Adnp^+/− mice [3]; FIG. 3D-G, both sexes, CB and DD): apparently normalized
- Foxp2 expression in the tongue, females (Foxp2): decreasing it
- Foxp2 expression in the tongue, males (Foxp2): normalizing it
- hippocampal Chl1 expression (Chl1): also regulated by NAP
- USV per minute, male and female groups combined (Adnp^+/− mouse pups; Adnp^+/− pups, NAP daily injections, FIG. 9C): protected against this deficiency; also recorded: most significant increase
- USV per minute by sex (Adnp^+/− mouse pups; Adnp^+/− pups, NAP vs saline treated littermates, increased group size, FIG. 9B): normalizing it in females; also recorded: increased vocalization in both sexes
- number of USVs produced in a minute, Adnp^+/− pups (Adnp^+/− mouse pups; eight-day-old pups, daily subcutaneous NAP (25 μg/ml saline) vs saline, p=0.005): significant increase; also recorded: amelioration
- number of USVs produced in a minute, Adnp^+/+ pups (Adnp^+/− mouse pups; eight-day-old pups, daily subcutaneous NAP vs saline, p=0.73): no significant treatment effect
- cognitive scores [4]: increase in cognitive scores
- functional activities of daily living (schizophrenia patients): protection of functional activities of daily living
